Patent publication US8835605B2, “Uses of cancer-targeting peptides in cancer diagnosis” (Academia Sinica, priority 2009, dated 2014)

What was measured:
[1] = tested on: BT483 breast cancer xenografts; test: In vivo binding (homing) of test phages to breast cancer xenografts, phage recovery from tissues; parameters: species or system SCID mice; details: heart, lung; for recovery rates of phage from tumor tissues compared with normal organs: 10^9 pfu i.v., tumor vs brain, FIG. 1
Description: SCID mice were injected subcutaneously (s.c.) in the dorsolateral flank with 1×10^7 BT483 cells to induce breast cancer xenografts. The mice bearing xenograft tumors at a size of around 300 mm^3 were administered intravenously (i.v.) with one of the five test phages mentioned in Example 1 above (10^9 pfu) or a control phage. After perfusion, xenograft tumors and organs (i.e., brain, heart, and lung) were removed from each mouse and homogenized. The phages bound to each tissue sample were eluted, recovered using ER2738 bacterial cells as the host, and titered on IPTG/X-Gal agar plates, following the methods described in Lee et al., Cancer Res. 67:10958-10965 (2007) and Lo et al., Mol. Cancer. Ther 7:579-589 (2008).

[2] = tested on: breast tumor xenografts (PC90 binding); test: In vivo competition: peptide co-injected with PC90, immunostaining of tumor tissues; parameters: species or system mice; details: 100 μg peptide co-injected with PC90
Description: SP90 was co-administered to test its ability of blocking PC90 from binding to the tumor tissues. Briefly, 100 μg SP90 or the control peptides described above were co-injected with PC90 to mice bearing breast tumor xenografts. The normal organs and tumor tissues were removed and fixed in Bouin's solution (Sigma, Mo., USA). After fixation, the samples were embedded in paraffin blocks, sliced to sections, and the sections were deparaffinized, rehydrated, and subjected to immunostaining using the mouse anti-M13 mAb described in Example 1 above.

[3] = tested on: cancer cells in the tissue samples (PC90 binding); test: Peptide competition assay on cancer tissue samples; parameters: species or system human; details: peptide 100 ng/ml with PC90 10^9 pfu
Description: (§1) Fresh breast cancer tissue samples were obtained from twenty patients having mammary infiltrating ducal carcinoma. Each of the tissue samples was sliced to 4 μm and fixed in 1% paraformaldehyde. The sliced tissue samples were then incubated with PC90 or a control phage. After being washed by PBS containing […] (PBST0.1), the samples were incubated with an anti-M13 mouse mAb (Amersham Biosciences, Piscataway, N.J., USA) for 1 hour at room temperature, washed again with PBST0.1, and the immunoreactivity of each sample was determined using a biotin-free super sensitive polymer-HRP detection system (Biogenex, San Ramon, Calif., USA), following the procedures described in Lee et al. (2004) and Lo et al. The slides, to which the tissue samples were attached, were counterstained with hematoxylin, mounted with Aquatex (Merck, Dannstadt, Germany), and examined by light microscopy. The percentage of the positively stained cells was determined following a method described in Hall et al., J. Pathol. 172:1-4 (1994).
The cancer targeting activity of PC90 was confirmed by a peptide competition assay, in which the cancer tissue samples were incubated with (1) the synthetic peptide (100 ng/ml) SMDPFLFQLLQL (SEQ ID NO:5) (SP90) and PC90 (10^9 pfu) or (2) the control peptide (100 ng/ml) RLLDTNRPLLPY (SEQ ID NO:6; see Lee et al., Cancer Res. 64:8002-8008, 2004) and PC90. […]

[4] = tested on: breast cancer tissue samples (mammary infiltrating ducal carcinoma); test: Immunostaining of patient breast cancer biopsy samples with phage; parameters: species or system human; details: biopsy samples from twenty patients; anti-M13 immunostaining
Description: as §1

Sequence: EATNSHGSRTMG (SEQ ID NO: 2) [PC65]
- recovery rates of phage from tumor tissues compared with normal organs [1]: much higher

Sequence: QLEFYTQLAHLI (SEQ ID NO: 4) [PC82]
- recovery rates of phage from tumor tissues compared with normal organs [1]: much higher

Sequence: QNIYAGVPMISF (SEQ ID NO: 1) [PC34]
- recovery rates of phage from tumor tissues compared with normal organs [1]: much higher

Sequence: RLLDTNRPLLPY (SEQ ID NO:6) [control peptide, synthetic control peptide, see Lee et al., Cancer Res. 64:8002-8008, 2004, reference compound]
- inhibition of PC90 binding to the tumor tissues (words) [2]: did not exhibit any inhibitory activity
- competition against PC90 for binding to cancer cells in tissue samples [3]: not

Sequence: SMDPFLFQLLQL (SEQ ID NO:5) [SP90, synthetic peptide …]
- inhibition of PC90 binding to the tumor tissues [2]: 97%
- inhibition of PC90 binding to the tumor tissues (words) [2]: significantly inhibited
- competition against PC90 for binding to cancer cells in tissue samples [3]: competed against PC90 for binding to the cancer cells

Sequence: SMDPFLFQLLQL (SEQ ID NO: 5) [PC90]
- patients determined as carrying breast cancer cells [4]: 18 out of the 20
- recovery rates of phage from tumor tissues compared with normal organs [1]: much higher
- targeting of tumor xenografts and normal organs ([1]; i.v., tumor xenografts vs brain): bound to cancer cells in the tumor xenografts but not to normal organs

Sequence: TVSWSTTGRIPL (SEQ ID NO: 3) [PC73]
- recovery rates of phage from tumor tissues compared with normal organs [1]: much higher
